# Results published in patent US20070117864A1, “Composition for preventing and treating hepatoma” (Tokyo University of Agr. & Tech. TLO Co., Ltd., priority 2003, published 2007).
# Marks after values point to notes of the source that are not given here.
# Experiments:
# [1] = serum lipid levels in hepatoma-bearing rats; type: in vivo, rat; conditions: for Serum lipid level (VLDL + LDL)-Cholesterol (B): difference between T-Ch and HDL-Ch; for Serum lipid level (VLDL + LDL)-Cholesterol (B) / AI (B/A), atherogenic index / Serum lipid level HDL-Cholesterol (A) / Serum lipid level Total Cholesterol / Serum lipid level Triglyceride: mean ± SEM of 11 rats
# Experimental: (§1) Male Donryu rats of four weeks old were purchased from NRC Haruna, Gumma, Japan, and were preliminarily fed for 6 days in quintuple cages in a room with a controlled environment with light period of 8:00 to 20:00, room temperature of 22±1° C., and relative humidity of 60±5%. For the first 3 days, the animals were fed ad libitum with a stock pellet diet (CE-2; CLEA Japan, Tokyo), and for the next 3 days, they were fed a basal diet containing 20% milk casein (20C) (Table 1) ad libitum together with tap water in a glass container. Following the completion of this preparatory raising, the rats were divided into three groups (11 animals per group) with equal average body weights of the respective groups were equal, and 1.0×10^7 of AH109A cells suspended in PBS (−) were transplanted in the back of all the rats. From the time immediately after transplantation, in the respective experimental groups, the animals were fed the experimental diets shown in Table 2. During the experimental period, the body weight, food intake and solid tumor size (sum of length, width and height) were measured everyday. On the day that the animals were killed, animals were deprived of experimental diets at 9:00, but freely given water until they were killed 4 hours later. Blood was collected from carotid, and the liver and solid tumors were excised. The collected blood was allowed to stand for approximately 2 hours at room temperature, and then centrifuged for 10 minutes at 3000 rpm (1750×g), 4° C., to obtain serum. This blood serum was frozen and stored at −20° C. The livers and solid tumors were washed with physiological saline, blotted on filter paper, and weighed. Furthermore, feces from the 19th to 21st days after transplantation were collected, and these feces were frozen and stored at −20° C. for the measurement of the amounts of steroids excreted from the body. Serum cholesterol (Ch) and triglyceride (TG) concentration was measured. Total cholesterol (T-Ch) level, the high-density-lipoprotein (HDL-Ch) level (which is the supernatant fraction obtained by precipitating very-low-density-lipoprotein+low-density-lipoprotein ((VLDL+LDL)-Ch fractions) by the precipitation method using phosphotungstic acid were measured. The (VLDL+LDL)-Ch level was taken as the difference between the T-Ch and the HDL-Ch levels. Atherogenic index (AI: (VLDL+LDL)-Ch/HDL-Ch ratio) was calculated as an index of atherogenesis.
# [2] = food intake, body weight gain and liver weight in hepatoma-bearing rats; type: in vivo, rat; conditions: for Body weight gain: mean ± SEM of 11 rats
# Experimental: as §1, with “body.” for “body. Serum cholesterol (Ch) and triglyceride (TG) concentration was measured. Total cholesterol (T-Ch) level, the high-density-lipoprotein (HDL-Ch) level (which is the supernatant fraction obtained by precipitating very-low-density-lipoprotein+low-density-lipoprotein ((VLDL+LDL)-Ch fractions) by the precipitation method using phosphotungstic acid were measured. The (VLDL+LDL)-Ch level was taken as the difference between the T-Ch and the HDL-Ch levels. Atherogenic index (AI: (VLDL+LDL)-Ch/HDL-Ch ratio) was calculated as an index of atherogenesis.”
# AH109A cells = assay: apoptosis of AH109A cells by flow cytometry, Annexin V/PI double staining; type: cell-based, rat; conditions: for proportion of the fourth quadrant (early stage of apoptosis) / proportion of the second quadrant (secondary necrosis) / proportion of the third quadrant (live cells): 3 hours
# Experimental: The analysis was performed using an ANNEXIN V FITC kit (IMMUNOTECH, Marseille, France). AH109A cells were inoculated at the density of 1×10^6 cells with 3 ml of the experimental medium in a dish with 6 cm in diameter (NUNC), and the cells were cultured for 0, 3 and 6 hours in a CO2 incubator at 37° C. The AH109A cells cultured under the respective treatment conditions were recovered, centrifuged for 5 minutes at 4° C. at 1000 rpm (90×g), and washed once with PBS (−). Subsequently, the cells was suspended in 490 μl of a binding buffer, and 5 μl of a PI solution and 5 μl of ANNEXIN V FITC, and these substances were gently mixed. The cells were stained by allowing the preparation to stand quietly for 10 minutes on ice with the light blocked. The apoptosis of the cells was analyzed using a flow cytometer (EPICS ELITE ESP; Beckman-Coulter, Hialeah, Fla., USA).
# [3] = ENL diet groups versus control diet group
smiles,measurement,setting,value
"O=C1OCC(Cc2cccc(O)c2)C1Cc1cccc(O)c1 (stereo not shown) [Enterolactone, enterolactone]",(VLDL+LDL)-Ch in the blood serum,[1]; [3],decreased significantly in a dose-dependent manner
same,"AI value, ratio of (VLDL+LDL)-Ch to HDL-Ch",[1]; [3],tendency to decrease
same,HDL-Ch in the blood serum,"[1]; ENL diet groups versus control diet group, not significant",tendency increase
same,Serum lipid level (VLDL + LDL)-Cholesterol (B),[1]; diet 10 ppm,0.68 ± 0.12^b mmol/L
same,"AI (B/A), atherogenic index",[1]; diet 10 ppm,0.48 ± 0.09
same,Serum lipid level HDL-Cholesterol (A),[1]; diet 10 ppm,1.45 ± 0.07 mmol/L
same,Serum lipid level Total Cholesterol,[1]; diet 10 ppm,2.13 ± 0.14 mmol/L
same,Serum lipid level Triglyceride,[1]; diet 10 ppm,0.98 ± 0.06 mmol/L
same,Serum lipid level (VLDL + LDL)-Cholesterol (B),[1]; diet 100 ppm,0.67 ± 0.08^b mmol/L
same,"AI (B/A), atherogenic index",[1]; diet 100 ppm,0.41 ± 0.05
same,Serum lipid level HDL-Cholesterol (A),[1]; diet 100 ppm,1.63 ± 0.06 mmol/L
same,Serum lipid level Total Cholesterol,[1]; diet 100 ppm,2.30 ± 0.12 mmol/L
same,Serum lipid level Triglyceride,[1]; diet 100 ppm,0.93 ± 0.06 mmol/L
same,body weight,[2]; 100 ppm ENL ingestion group versus control,significant increase
same,Body weight gain,[2]; diet 10 ppm,158 ± 8^a g/21 days
same,Body weight gain,[2]; diet 100 ppm,171 ± 4^b g/21 days
same,proportion of the fourth quadrant (early stage of apoptosis),AH109A cells; 6.25 μM ENL,8.4%
same,proportion of the second quadrant (secondary necrosis),AH109A cells; 6.25 μM ENL,2.8%
same,proportion of the third quadrant (live cells),AH109A cells; 6.25 μM ENL,88.1%
same,proportion of the fourth quadrant (early stage of apoptosis),AH109A cells; 12.5 μM ENL,11.4%
same,proportion of the second quadrant (secondary necrosis),AH109A cells; 12.5 μM ENL,2.3%
same,proportion of the third quadrant (live cells),AH109A cells; 12.5 μM ENL,86.1%
same,proportion of cells in the early stage of apoptosis,AH109A cells; 6.25 and 12.5 μM ENL,increased
same,proportion of cells showing secondary necrosis,AH109A cells; 6.25 and 12.5 μM ENL,increased to some extent
same,proportion of live cells,AH109A cells; 6.25 and 12.5 μM ENL,decreased in a dose-dependent manner
